Measurements: US5244916A, “Inhibition of respiratory burst using posttranslational modification inhibitors” (The Scripps Research Institute, priority 1992, dated 1993)
Like-named read-outs stand apart in the source and are kept apart here.

How the values were obtained:
[1] = system: HL-60 cells (NADPH oxidase / respiratory burst); assay: O2- formation by DMSO-differentiated HL-60 cells, FMLP-stimulated (SOD-sensitive cytochrome c reduction); assay type: cell-based; conditions: for activity at 0.4 µM / activity at 2 µM / activity at 4 µM / activity at 10 µM: Homo sapiens, HL-60; for activity at 0.4 µM: 0.4 μM compactin; for activity at 2 µM: 2 μM compactin; for activity at 4 µM: 4 μM compactin; for activity at 10 µM: 10 μM compactin
Procedure: (§1) HL-60 cells were maintained in stationary culture in RPMI 1640 medium (Gibco, Grand Island, NY) containing 10% fetal bovine serum at 37° C in an atmosphere of 95 air and 5% CO2. The cells (about 8×10^5 /ml) were differentiated into neutrophil-like cells by treatment with 1.3% DMSO for six days (Harris, et al., J. Leukocyte Biol. 37: 407-422 (1985)). The cells were treated with the indicated levels of compactin or lovastatin by addition of a 1,000-fold concentrated stock solution to the appropriate concentration on day 4 of differentiation. […] In studies of the protective effect of mevalonic acid, the compound was added as the mevalonolactone (Sigma Chemical Co., St. Louis, MO) at a concentration of 1 mM to the cell culture on days 4 to 6. Similarly, cholesterol was added in the form of LDL prepared according to the method of Curtiss and Edgington (Curtiss, et al., J. Biol. Chem. 257: 15213-15221 (1991)) at a final concentration of 50 μg/ml; ubiquinone (Sigma Chemical Co., St. Louis, MO) was added as Coenzyme Q-10 at a final concentration of 0.5 mM; and dolichol (Sigma Chemical Co., St. Louis, MO) was added as a dispersion in phosphatidylcholine at a final concentration of 0.5 mM (Cutts, et al., J. Cell Physiol. 139: 550-555 (1989)).
(§2) O2 --formation by HL-60 cells was assessed by the SOD-sensitive reduction of cytochrome c. Cells were suspended at 1×10^7 /ml in Krebs-Ringer Hepes buffer with 5.5 mM glucose (KRHG) and 50-100μl of cells were added to a cuvette containing 100 μM cytochrome c (type III, Sigma Chemical Co., St. Louis, MO), ±300 μg/ml SOD (Sigma Chemical Co., St. Louis, MO) in 700-750 μl KRHG. Cytochalasin b (Sigma Chemical Co., St. Louis, MO) was added to a final concentration of 5 μg/ml, and the cells were incubated at 37° C. for five minutes while a stable baseline at a wavelength of 550 nm was obtained. O2 --formation was initiated by the addition of 1 μM N-formylmethionylleucylphenylalanine (FMLP; Sigma Chemical Co., St. Louis, MO) or 1μg/ml phorbol myristate acetate (PMA; Sigma Chemical Co., St. Louis, MO). Cytochrome c reduction at 550nm was continuously monitored and maximal rate and extent of the reaction calculated.

[2] = system: HL-60 cells (NADPH oxidase / respiratory burst); assay: Prevention of compactin-inhibition of FMLP-stimulated O2- formation in HL-60 cells by mevalonic acid and other supplements; assay type: cell-based
Procedure: as §1, §2
Inhibition of protein isoprenylation can interfere with LMWG function without inhibiting overall cellular function (Maltese, supra (1990)). Since compactin inhibits at the enzymatic step preceding mevalonic acid synthesis, one should be able to reverse effects of compactin due specifically to inhibition of this pathway by addition of exogenous mevalonic acid.

NADPH oxidase = assay: Cell-free oxidase system with compactin included in the assay cuvette; assay type: biochemical; conditions: 10 μM compactin in the assay cuvette
Procedure: To assess O2 --formation using HL-60 membrane and cytosol, the cell-free system of Curnutte, et al. (Curnutte, et al., J. Biol. Chem. 262: 5563-5569 (1987); Curnutte, et al.,m J. Biol. Chem. 262: 6450-6452 (1987)) was utilized. Briefly, HL-60 membrane pellet (50-60μg) or human neutrophil membrane (6.35×10^6 cell equivalents) was added to a cuvette containing 100 μM cytochrome c (type III, Sigma Chemical Co., St. Louis, MO), 6.25 mM MgCl2, 93 mM KCl, 2.8 mM NaCl, 9.3 mM Pipes pH 7.3, 0.8mM ATP, 0.16 mM NADPH, 10 μM GTPgammaS, 225 μg HL-60 cytosol, or 250 μg ([…]; cell equivalents) of human neutrophil cytosol and ±300μg/ml SOD (Sigma Chemical Co., St. Louis, MO). After a three-minute equilibration at 25° C., the formation of O2 --was initiated by the addition of 100 μM SDS. O2 --generation was monitored continuously as the SOD-sensitive reduction of cytochrome c at 550 nm. Human neutrophil plasma membranes (gamma-GSP) and cytosol (GSS) were prepared as described in (Curnutte, et al., suora (1987)).
Treatment of peripheral blood neutrophils with 10 μM compactin for up to two hours produced no effect upon the ability of these cells to support a respiratory burst in response to FMLP. […] It seems unlikely that both compounds would randomly produce similar nonspecific toxic effects on the NADPH oxidase.

[3] = system: peripheral blood neutrophils; assay: Respiratory burst of peripheral blood neutrophils in response to FMLP after short-term compactin; assay type: cell-based; conditions: 10 μM, up to two hours
[4] = read-out: FMLP-stimulated O2- formation, Extent
[5] = read-out: FMLP-stimulated O2- formation, Rate
[6] = 4 μM compactin + 1 mM mevalonate
[7] = 10 μM compactin + 50 μg/ml cholesterol, n = 2
[8] = 10 μM compactin + 1 mM mevalonate

CC[C@H](C)C(=O)O[C@H]1CCC=C2C=C[C@H](C)[C@H](CC[C@@H]3C[C@@H](O)CC(=O)O3)[C@H]21 [compactin]
activity at 0.4 µM [1, 4]: 71 ± 10% | activity at 0.4 µM [1, 5]: 77 ± 10% | activity at 2 µM [1, 4]: 36 ± 11% | activity at 2 µM [1, 5]: 47 ± 11% | activity at 4 µM [1, 4]: 22 ± 1% | activity at 4 µM [1, 5]: 39 ± 4.1% | activity at 10 µM [1, 4]: 12 ± 2.1% | activity at 10 µM [1, 5]: 15 ± 2.6% | inhibition of O2- formation in response to FMLP ([1]; various concentrations): dose-dependent inhibition | FMLP-stimulated O2- formation, Extent ([2]; 4 μM compactin): 28 ± 3.5 % of control | FMLP-stimulated O2- formation, Rate ([2]; 4 μM compactin): 43 ± 5.0 % of control | FMLP-stimulated O2- formation, Extent [2, 6]: 96 ± 8.0 % of control | FMLP-stimulated O2- formation, Rate [2, 6]: 97 ± 4.0 % of control | FMLP-stimulated O2- formation, Extent ([2]; 10 μM compactin): 13 ± 0.4 % of control | FMLP-stimulated O2- formation, Rate ([2]; 10 μM compactin): 19 ± 3.9 % of control | FMLP-stimulated O2- formation, Extent [2, 7]: 22 % of control | FMLP-stimulated O2- formation, Rate [2, 7]: 28 % of control | FMLP-stimulated O2- formation, Extent [2, 8]: 114 ± 1.6 % of control | FMLP-stimulated O2- formation, Rate [2, 8]: 115 ± 7.6 % of control | inhibition of O2- formation, cell-free (NADPH oxidase): did not inhibit | effect on respiratory burst of peripheral blood neutrophils [3]: no effect
